Experimental data as given in patent US20050282743A1, “Molecular interactions in cells” (Arbor Vita Corporation, priority 2001, published 2005).
Peptide text beside a SMILES is read from it. * marks the point of attachment. Biotin = O=C1N[C@H]2[C@H](CS[C@H]2CCCCC(=O)*)N1

What was measured:
Assay in all cases: G' assay (10 uM PL peptide), results of TABLE 7 and TABLE 12
Format in all cases: binding
[1] = molecular target: T1, PDZ protein (GST-PDZ fusion) (Homo sapiens, UniProt Q6P0Q8)
T1 construct: made in house; host or cells: E. coli (DH5alpha, BL21 or JM109)
T1 sequence (Q6P0Q8 whole entry, the tested form may be a part): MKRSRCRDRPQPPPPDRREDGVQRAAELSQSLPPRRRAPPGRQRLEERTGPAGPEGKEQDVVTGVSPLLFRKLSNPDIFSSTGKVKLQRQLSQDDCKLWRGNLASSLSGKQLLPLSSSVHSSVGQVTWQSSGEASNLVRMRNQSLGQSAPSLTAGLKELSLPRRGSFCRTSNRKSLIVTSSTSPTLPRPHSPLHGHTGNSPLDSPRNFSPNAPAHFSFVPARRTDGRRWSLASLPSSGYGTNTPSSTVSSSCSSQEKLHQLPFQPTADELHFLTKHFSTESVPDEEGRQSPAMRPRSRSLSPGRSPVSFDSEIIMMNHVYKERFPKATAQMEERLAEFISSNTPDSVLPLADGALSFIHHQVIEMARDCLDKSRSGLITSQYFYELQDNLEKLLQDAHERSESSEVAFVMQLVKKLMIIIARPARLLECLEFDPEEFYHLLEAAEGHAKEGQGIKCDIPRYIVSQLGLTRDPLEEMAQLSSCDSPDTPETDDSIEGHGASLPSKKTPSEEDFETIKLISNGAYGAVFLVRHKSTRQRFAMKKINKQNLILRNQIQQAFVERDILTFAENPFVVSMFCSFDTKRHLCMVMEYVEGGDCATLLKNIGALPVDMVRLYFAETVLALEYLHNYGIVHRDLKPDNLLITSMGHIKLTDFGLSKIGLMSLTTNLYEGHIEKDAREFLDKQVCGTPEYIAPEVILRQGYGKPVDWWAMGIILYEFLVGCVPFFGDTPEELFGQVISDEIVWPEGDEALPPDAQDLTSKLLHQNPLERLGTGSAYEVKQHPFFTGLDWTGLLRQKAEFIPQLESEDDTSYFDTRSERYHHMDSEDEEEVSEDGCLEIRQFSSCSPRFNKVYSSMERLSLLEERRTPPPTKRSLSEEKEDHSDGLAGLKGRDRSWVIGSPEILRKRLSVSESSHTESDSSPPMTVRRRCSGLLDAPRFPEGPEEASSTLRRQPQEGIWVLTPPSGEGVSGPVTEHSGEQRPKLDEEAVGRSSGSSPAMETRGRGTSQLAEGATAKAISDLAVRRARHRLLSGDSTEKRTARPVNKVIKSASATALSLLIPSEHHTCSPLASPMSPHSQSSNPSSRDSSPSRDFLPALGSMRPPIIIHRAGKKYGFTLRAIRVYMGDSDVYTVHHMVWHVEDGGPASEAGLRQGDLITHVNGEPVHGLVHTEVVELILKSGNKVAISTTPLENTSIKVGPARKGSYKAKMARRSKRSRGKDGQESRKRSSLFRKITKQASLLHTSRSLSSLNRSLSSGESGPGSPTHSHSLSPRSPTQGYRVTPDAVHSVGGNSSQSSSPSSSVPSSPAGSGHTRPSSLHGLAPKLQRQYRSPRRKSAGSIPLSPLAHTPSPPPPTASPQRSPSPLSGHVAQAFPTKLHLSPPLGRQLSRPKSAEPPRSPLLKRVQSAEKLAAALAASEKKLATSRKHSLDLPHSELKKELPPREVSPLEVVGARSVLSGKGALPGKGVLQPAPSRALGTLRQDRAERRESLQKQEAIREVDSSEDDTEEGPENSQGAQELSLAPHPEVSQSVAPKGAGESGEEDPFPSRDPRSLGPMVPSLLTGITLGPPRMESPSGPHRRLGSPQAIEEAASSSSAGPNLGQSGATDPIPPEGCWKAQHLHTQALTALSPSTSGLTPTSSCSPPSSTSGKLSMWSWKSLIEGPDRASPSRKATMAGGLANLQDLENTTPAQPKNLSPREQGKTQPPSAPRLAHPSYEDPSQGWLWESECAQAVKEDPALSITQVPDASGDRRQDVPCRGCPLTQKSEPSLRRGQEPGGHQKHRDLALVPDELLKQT
In short: (§1)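 Biotin-PL peptide (N-term label), 10 uM vs GST-PDZ; protein 5 ug/ml by default. A450 nm binned: 1 = 0-1, 2 = 1-2, 3 = 2-3, 4 = 3-4, 5 = >4 on >2 repeats, 0 = no binding.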

[2] = system: PDZ protein (GST-PDZ fusion)
In short: as §1

[3] = molecular target: T2, PDZ protein (GST-PDZ fusion) (Homo sapiens, UniProt Q96JH8); settings: PDZ FLJ 10324, PDZ Domain 1
T2 construct: made in house; host or cells: E. coli (DH5alpha, BL21 or JM109)
T2 sequence (Q96JH8 1-1075): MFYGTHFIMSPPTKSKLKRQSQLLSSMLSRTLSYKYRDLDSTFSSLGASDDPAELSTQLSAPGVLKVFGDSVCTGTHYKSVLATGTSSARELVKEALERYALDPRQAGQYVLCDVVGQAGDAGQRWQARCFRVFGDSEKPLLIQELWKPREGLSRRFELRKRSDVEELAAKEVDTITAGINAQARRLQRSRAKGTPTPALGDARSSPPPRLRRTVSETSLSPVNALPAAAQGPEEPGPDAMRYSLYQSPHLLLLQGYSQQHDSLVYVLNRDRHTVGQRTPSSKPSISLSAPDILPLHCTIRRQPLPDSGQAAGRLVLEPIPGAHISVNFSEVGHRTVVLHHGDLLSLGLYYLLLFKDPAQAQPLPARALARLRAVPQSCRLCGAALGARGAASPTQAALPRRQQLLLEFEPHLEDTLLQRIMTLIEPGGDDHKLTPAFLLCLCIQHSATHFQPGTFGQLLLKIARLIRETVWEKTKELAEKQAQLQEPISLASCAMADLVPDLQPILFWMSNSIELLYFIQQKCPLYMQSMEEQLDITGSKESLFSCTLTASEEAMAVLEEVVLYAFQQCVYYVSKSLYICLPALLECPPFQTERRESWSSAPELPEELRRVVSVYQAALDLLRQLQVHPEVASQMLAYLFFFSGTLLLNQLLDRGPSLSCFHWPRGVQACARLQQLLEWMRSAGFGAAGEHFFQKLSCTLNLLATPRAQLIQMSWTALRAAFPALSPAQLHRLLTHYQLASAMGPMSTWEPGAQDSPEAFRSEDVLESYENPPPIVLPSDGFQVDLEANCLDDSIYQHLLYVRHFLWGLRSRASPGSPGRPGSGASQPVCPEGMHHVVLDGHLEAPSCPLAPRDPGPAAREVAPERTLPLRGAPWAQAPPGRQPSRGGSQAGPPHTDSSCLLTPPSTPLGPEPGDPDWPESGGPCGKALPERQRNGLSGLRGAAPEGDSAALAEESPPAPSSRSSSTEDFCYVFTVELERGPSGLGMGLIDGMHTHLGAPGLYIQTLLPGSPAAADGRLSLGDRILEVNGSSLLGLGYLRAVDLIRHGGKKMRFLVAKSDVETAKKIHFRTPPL
In short: as §1

[4] = molecular target: T3, PDZ protein (GST-PDZ fusion) (Homo sapiens, UniProt O75970)
T3 construct: made in house; host or cells: E. coli (DH5alpha, BL21 or JM109)
In short: as §1

[5] = molecular target: T4, PDZ protein (GST-PDZ fusion) (Homo sapiens, UniProt Q12923)
T4 construct: made in house; host or cells: E. coli (DH5alpha, BL21 or JM109)
T4 sequence (Q12923 whole entry, the tested form may be a part): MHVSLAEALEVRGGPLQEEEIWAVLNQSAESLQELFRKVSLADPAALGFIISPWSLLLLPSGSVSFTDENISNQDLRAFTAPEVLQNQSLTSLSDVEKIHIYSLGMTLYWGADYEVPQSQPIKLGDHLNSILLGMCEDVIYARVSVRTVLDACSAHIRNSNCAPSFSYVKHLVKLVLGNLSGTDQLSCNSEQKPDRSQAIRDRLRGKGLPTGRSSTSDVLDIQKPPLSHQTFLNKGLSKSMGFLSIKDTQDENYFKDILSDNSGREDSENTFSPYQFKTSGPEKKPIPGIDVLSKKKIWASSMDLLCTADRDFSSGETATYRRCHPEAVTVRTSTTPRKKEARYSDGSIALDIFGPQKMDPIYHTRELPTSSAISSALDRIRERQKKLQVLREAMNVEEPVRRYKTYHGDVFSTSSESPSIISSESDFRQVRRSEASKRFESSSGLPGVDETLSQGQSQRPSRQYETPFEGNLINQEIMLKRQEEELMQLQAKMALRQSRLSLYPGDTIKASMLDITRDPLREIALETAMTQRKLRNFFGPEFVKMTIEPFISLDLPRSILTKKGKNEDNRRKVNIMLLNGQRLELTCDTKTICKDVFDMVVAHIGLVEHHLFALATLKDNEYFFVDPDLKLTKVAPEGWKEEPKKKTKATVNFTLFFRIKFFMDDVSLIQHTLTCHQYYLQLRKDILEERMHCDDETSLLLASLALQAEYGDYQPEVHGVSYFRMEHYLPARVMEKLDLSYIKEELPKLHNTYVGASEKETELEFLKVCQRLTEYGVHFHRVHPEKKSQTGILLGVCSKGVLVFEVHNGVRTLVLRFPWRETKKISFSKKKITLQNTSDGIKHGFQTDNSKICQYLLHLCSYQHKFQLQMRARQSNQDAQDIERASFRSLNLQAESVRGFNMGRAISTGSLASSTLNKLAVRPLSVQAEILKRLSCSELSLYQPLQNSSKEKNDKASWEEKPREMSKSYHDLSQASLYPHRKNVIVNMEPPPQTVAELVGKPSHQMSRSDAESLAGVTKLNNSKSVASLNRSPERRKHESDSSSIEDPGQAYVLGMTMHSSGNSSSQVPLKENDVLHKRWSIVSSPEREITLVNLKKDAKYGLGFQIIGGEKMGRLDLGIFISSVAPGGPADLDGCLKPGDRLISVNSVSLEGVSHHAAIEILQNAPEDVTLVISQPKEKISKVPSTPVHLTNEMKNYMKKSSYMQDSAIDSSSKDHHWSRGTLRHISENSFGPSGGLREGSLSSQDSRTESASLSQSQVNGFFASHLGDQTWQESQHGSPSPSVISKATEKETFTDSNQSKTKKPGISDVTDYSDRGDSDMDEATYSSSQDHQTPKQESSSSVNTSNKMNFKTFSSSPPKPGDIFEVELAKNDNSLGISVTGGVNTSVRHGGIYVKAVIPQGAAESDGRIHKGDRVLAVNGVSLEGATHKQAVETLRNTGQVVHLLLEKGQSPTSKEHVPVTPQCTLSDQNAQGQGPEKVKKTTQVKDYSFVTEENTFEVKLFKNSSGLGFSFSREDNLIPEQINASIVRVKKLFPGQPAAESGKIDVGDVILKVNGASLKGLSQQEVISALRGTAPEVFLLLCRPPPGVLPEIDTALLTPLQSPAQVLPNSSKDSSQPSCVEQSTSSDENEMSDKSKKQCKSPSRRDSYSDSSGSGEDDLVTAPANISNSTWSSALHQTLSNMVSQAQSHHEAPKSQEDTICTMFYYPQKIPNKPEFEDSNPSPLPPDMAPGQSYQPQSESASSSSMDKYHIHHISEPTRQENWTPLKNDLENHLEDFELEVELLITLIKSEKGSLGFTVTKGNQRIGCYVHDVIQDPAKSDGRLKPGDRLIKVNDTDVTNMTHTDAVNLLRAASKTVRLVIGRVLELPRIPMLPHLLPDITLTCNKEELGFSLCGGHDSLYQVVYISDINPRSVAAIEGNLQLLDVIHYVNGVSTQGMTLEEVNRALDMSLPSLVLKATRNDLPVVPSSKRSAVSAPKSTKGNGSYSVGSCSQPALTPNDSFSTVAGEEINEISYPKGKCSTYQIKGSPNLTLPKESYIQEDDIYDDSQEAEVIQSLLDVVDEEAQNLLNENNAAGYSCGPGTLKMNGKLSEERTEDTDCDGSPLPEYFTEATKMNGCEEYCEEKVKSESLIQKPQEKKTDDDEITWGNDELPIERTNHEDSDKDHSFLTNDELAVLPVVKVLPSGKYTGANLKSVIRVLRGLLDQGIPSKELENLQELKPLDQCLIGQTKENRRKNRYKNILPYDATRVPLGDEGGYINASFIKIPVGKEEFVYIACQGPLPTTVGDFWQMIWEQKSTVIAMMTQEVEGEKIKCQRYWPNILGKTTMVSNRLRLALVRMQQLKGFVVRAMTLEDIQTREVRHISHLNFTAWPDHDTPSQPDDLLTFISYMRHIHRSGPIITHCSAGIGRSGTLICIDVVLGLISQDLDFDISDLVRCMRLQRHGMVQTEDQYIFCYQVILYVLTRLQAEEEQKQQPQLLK
In short: as §1

[6] = PDZ KIAA807, PDZ Domain not given

CSCC[C@H](NC(=O)[C@H](C)NC(=O)[C@H](CCCNC(=N)N)NC(=O)CNC(=O)[C@@H](NC(=O)[C@H](Cc1c[nH]c2ccccc12)NC(=O)[C@H](CCCNC(=N)N)NC(=O)CNC(=O)CCCC[C@@H]1SC[C@@H]2NC(=O)N[C@@H]21)[C@@H](C)O)C(=O)N[C@@H](CO)C(=O)N[C@@H](C)C(=O)N[C@@H](Cc1c[nH]c2ccccc12)C(=O)N[C@@H](CCCCN)C(=O)N1CCC[C@H]1C(=O)N[C@H](C(=O)N[C@@H](CCCNC(=N)N)C(=O)N[C@@H](CCCNC(=N)N)C(=O)N[C@@H](CCC(=O)O)C(=O)N[C@H](C(=O)N[C@@H](CCC(=O)O)C(=O)N[C@H](C(=O)O)C(C)C)[C@@H](C)O)[C@@H](C)O [HPV E6 #35 (modified)] (Biotin-GRWTGRAMSAWKPTRRETEV-OH; C-terminus assumed)
Classification ([1]; PDZ KIAA0807(S), PDZ Domain 1, Protein Optimal Conc 0.5): 5 (A450 nm of 4 more than 2× repeated) | Classification [1, 6]: 5 (A450 nm of 4 more than 2× repeated) | Classification ([2]; PDZ BAI-1, PDZ Domain 2): 5 (A450 nm of 4 more than 2× repeated) | Classification ([2]; PDZ BAI-1, PDZ Domain 3): 4 (A450 nm 3-4) | Classification ([2]; PDZ BAI-1, PDZ Domain 4): 5 (A450 nm of 4 more than 2× repeated) | Classification ([2]; PDZ BAI-1, PDZ Domain 5): 5 (A450 nm of 4 more than 2× repeated) | Classification ([2]; PDZ BAI-1, PDZ Domain 6): 3 (A450 nm 2-3) | Classification ([2]; PDZ Connector Enhancer, PDZ Domain 1): 1 (A450 nm 0-1) | Classification ([2]; PDZ FLJ 00011, PDZ Domain 1): 3 (A450 nm 2-3) | Classification ([2]; PDZ FLJ 11215, PDZ Domain 1): 4 (A450 nm 3-4) | Classification ([2]; PDZ HEMBA 1003117, PDZ Domain 1): 1 (A450 nm 0-1) | Classification [3]: 1 (A450 nm 0-1) | Classification ([4]; PDZ MUPP-1, PDZ Domain 5): 2 (A450 nm 1-2) | Classification ([4]; PDZ MUPP-1, PDZ Domain 10): 4 (A450 nm 3-4) | Classification ([4]; PDZ MUPP-1, PDZ Domain 13): 5 (A450 nm of 4 more than 2× repeated) | Classification ([5]; PDZ PTPL-1, PDZ Domain 2): 2 (A450 nm 1-2) | Classification ([5]; PDZ PTPL-1, PDZ Domain 4): 1 (A450 nm 0-1)

CC(C)C[C@H](NC(=O)[C@H](C)NC(=O)[C@H](CO)NC(=O)CNC(=O)[C@@H](NC(=O)CCCC[C@@H]1SC[C@@H]2NC(=O)N[C@@H]21)[C@@H](C)O)C(=O)N[C@@H](CCC(N)=O)C(=O)N[C@@H](C)C(=O)N[C@@H](Cc1c[nH]c2ccccc12)C(=O)N[C@@H](CCCNC(=N)N)C(=O)N[C@@H](Cc1c[nH]cn1)C(=O)N[C@H](C(=O)N[C@@H](CO)C(=O)N[C@@H](CCCNC(=N)N)C(=O)N[C@@H](CCC(N)=O)C(=O)N[C@@H](C)C(=O)N[C@H](C(=O)N[C@@H](CCC(=O)O)C(=O)N[C@@H](CO)C(=O)N[C@H](C(=O)N[C@H](C(=O)O)C(C)C)[C@@H](C)O)[C@@H](C)O)[C@@H](C)O [HPV E6 #66 (modified)] (Biotin-TGSALQAWRHTSRQATESTV-OH; C-terminus assumed)
Classification ([1]; PDZ KIAA0807(S), PDZ Domain 1): 4 (A450 nm 3-4) | Classification [1, 6]: 2 (A450 nm 1-2) | Classification ([2]; PDZ BAI-1, PDZ Domain 2): 5 (A450 nm of 4 more than 2× repeated) | Classification ([2]; PDZ BAI-1, PDZ Domain 3): 1 (A450 nm 0-1) | Classification ([2]; PDZ BAI-1, PDZ Domain 5): 1 (A450 nm 0-1) | Classification ([2]; PDZ FLJ 00011, PDZ Domain 1): 1 (A450 nm 0-1) | Classification [3]: 1 (A450 nm 0-1) | Classification ([4]; PDZ MUPP-1, PDZ Domain 10): 1 (A450 nm 0-1) | Classification ([4]; PDZ MUPP-1, PDZ Domain 13): 3 (A450 nm 2-3) | Classification ([5]; PDZ PTPL-1, PDZ Domain 2): 3 (A450 nm 2-3)
